Experimental data from patent publication US8952024B2, “Herbicidal pyrimidone derivatives” (E I du Pont de Nemours and Company, priority 2009, dated 2015).

Tests used:
Format in all cases: in vivo
[1] = test system: barnyardgrass (Echinochloa crus-galli); experiment: Test A pre-/postemergence plant response
In short: (§1)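 Greenhouse trial, ~10 days. Soil (loam/sand) sprayed preemergence after seeding; emerged plants (1–2 leaf, 2–10 cm) sprayed postemergence in parallel. Response = visual injury vs untreated control, 0–100.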

corn (Zea mays) = experiment: Test A pre-/postemergence plant response
In short: as §1

[2] = test system: giant foxtail (Setaria faberii); experiment: Test A pre-/postemergence plant response
In short: as §1

[3] = test system: large crabgrass (Digitaria sanguinalis); experiment: Test A pre-/postemergence plant response
In short: as §1

[4] = test system: morningglory (Ipomoea spp.); experiment: Test A pre-/postemergence plant response
In short: as §1

[5] = test system: pigweed (Amaranthus retroflexus); experiment: Test A pre-/postemergence plant response
In short: as §1

[6] = test system: velvetleaf (Abutilon theophrasti); experiment: Test A pre-/postemergence plant response
In short: as §1

[7] = test system: wheat (Triticum aestivum); experiment: Test A pre-/postemergence plant response
In short: as §1

[8] = test system: canarygrass (Phalaris minor); experiment: Test B postemergence plant response; settings: for Canarygrass plant response rating (0 to 100 scale): 62 g ai/ha, postemergence, 0 is no effect, 100 is complete control; for Plant response rating, Canarygrass: Postemergence
In short: (§2)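 Visual ratings from 0 (no effect) to 100 (complete control), made against controls 13–15 days after treatment, kept in a greenhouse. Compounds were applied postemergence to potted plants at the 1- to 4-leaf stage (2–18 cm).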

[9] = test system: chickweed (Stellaria media); experiment: Test B postemergence plant response; settings: for Chickweed plant response rating (0 to 100 scale): 62 g ai/ha, postemergence, 0 is no effect, 100 is complete control; for Plant response rating, Chickweed: Postemergence
In short: as §2

[10] = test system: windgrass (Apera spica-venti); experiment: Test B postemergence plant response; settings: for Windgrass plant response rating (0 to 100 scale): 62 g ai/ha, postemergence, 0 is no effect, 100 is complete control; for Plant response rating, Windgrass: Postemergence
In short: as §2

[11] = test system: winter barley (Hordeum vulgare); experiment: Test B postemergence plant response; settings: for Barley plant response rating (0 to 100 scale): 62 g ai/ha, postemergence, 0 is no effect, 100 is complete control; for Plant response rating, Barley: Postemergence
In short: as §2

[12] = Postemergence, 125 g ai/ha, 0 to 100 scale where 0 is no effect and 100 is complete control
[13] = Postemergence, 500 g ai/ha, 0 to 100 scale, 0 = no effect, 100 = complete control, approx. ten days
[14] = Preemergence, 125 g ai/ha, 0 to 100 scale, 0 = no effect, 100 = complete control
[15] = Preemergence, 500 g ai/ha, visual injury, 0 to 100 scale (0 no effect, 100 complete control), approx. ten days
[16] = 31 g ai/ha, 0 to 100 scale (0 no effect, 100 complete control)
[17] = 125 g ai/ha, scale 0 to 100 (0 no effect, 100 complete control)
[18] = 250 g ai/ha, scale 0 to 100 (0 no effect, 100 complete control), 13 to 15 days
[19] = Preemergence, 500 g ai/ha, 0 to 100 scale, 0 = no effect, 100 = complete control

CCCn1c(-c2cccc(Br)c2)ncc(C(=O)C2=C(O)CCCC2=O)c1=O [Compound 141]
25: Plant response rating, Windgrass [10, 16]
35: Windgrass plant response rating (0 to 100 scale) ([10]; 13 to 15 days)
100: Plant response rating, Barnyardgrass [1, 15] | Plant response rating, Crabgrass, Large [3, 15] | Plant response rating, Morningglory [4, 13] | Plant response rating, Pigweed [5, 13] | Plant response rating, Pigweed [5, 15] | Plant response rating, Velvetleaf [6, 12] | Plant response rating, Velvetleaf [6, 13] | Plant response rating, Velvetleaf [6, 15]
20: Plant response rating, Corn (corn (Zea mays); [12])
85: Chickweed plant response rating (0 to 100 scale) ([9]; 13 to 15 days)
50: Plant response rating, Windgrass [10, 18]
95: Plant response rating, Chickweed [9, 18]
0: Plant response rating, Corn (corn (Zea mays); [14]) | Plant response rating, Corn (corn (Zea mays); [15]) | Plant response rating, Morningglory [4, 14] | Plant response rating, Wheat [7, 12] | Plant response rating, Wheat [7, 13] | Plant response rating, Wheat [7, 14] | Plant response rating, Wheat [7, 15] | Canarygrass plant response rating (0 to 100 scale) ([8]; 13 to 15 days) | Plant response rating, Canarygrass [8, 16] | Barley plant response rating (0 to 100 scale) ([11]; 13 to 15 days) | Plant response rating, Barley [11, 16]
80: Plant response rating, Foxtail, Giant [2, 12] | Plant response rating, Foxtail, Giant [2, 15] | Plant response rating, Crabgrass, Large [3, 12] | Plant response rating, Crabgrass, Large [3, 14]
40: Plant response rating, Foxtail, Giant [2, 14] | Plant response rating, Windgrass [10, 17]
30: Plant response rating, Corn (corn (Zea mays); [13]) | Plant response rating, Morningglory [4, 15]
90: Plant response rating, Barnyardgrass [1, 12] | Plant response rating, Barnyardgrass [1, 13] | Plant response rating, Foxtail, Giant [2, 13] | Plant response rating, Crabgrass, Large [3, 13] | Plant response rating, Pigweed [5, 12] | Plant response rating, Chickweed [9, 17]
60: Plant response rating, Barnyardgrass [1, 14] | Plant response rating, Chickweed [9, 16]
5: Plant response rating, Canarygrass [8, 17] | Plant response rating, Canarygrass [8, 18] | Plant response rating, Barley [11, 17] | Plant response rating, Barley [11, 18]
70: Plant response rating, Morningglory [4, 12] | Plant response rating, Pigweed [5, 14] | Plant response rating, Velvetleaf [6, 14]

CCCCn1c(-c2cccc(Cl)c2)ncc(C(=O)C2=C(O)CCCC2=O)c1=O [Compound 146]
30: Plant response rating, Corn (corn (Zea mays); [13]) | Plant response rating, Corn (corn (Zea mays); [15]) | Plant response rating, Foxtail, Giant [2, 14] | Plant response rating, Barley [11, 18]
60: Plant response rating, Barnyardgrass [1, 14] | Plant response rating, Crabgrass, Large [3, 14] | Plant response rating, Windgrass [10, 17] | Plant response rating, Windgrass [10, 18]
10: Plant response rating, Morningglory [4, 14] | Plant response rating, Canarygrass [8, 18]
45: Plant response rating, Windgrass [10, 16]
50: Plant response rating, Wheat [7, 13] | Windgrass plant response rating (0 to 100 scale) ([10]; 13 to 15 days)
98: Plant response rating, Chickweed [9, 17] | Plant response rating, Chickweed [9, 18]
90: Plant response rating, Foxtail, Giant [2, 13] | Plant response rating, Foxtail, Giant [2, 15] | Plant response rating, Crabgrass, Large [3, 13] | Plant response rating, Morningglory [4, 12] | Plant response rating, Morningglory [4, 13]
5: Plant response rating, Canarygrass [8, 17]
20: Plant response rating, Corn (corn (Zea mays); [12]) | Plant response rating, Wheat [7, 12]
95: Chickweed plant response rating (0 to 100 scale) ([9]; 13 to 15 days)
40: Plant response rating, Wheat [7, 19]
70: Plant response rating, Foxtail, Giant [2, 12] | Plant response rating, Pigweed [5, 14] | Plant response rating, Velvetleaf [6, 14] | Plant response rating, Chickweed [9, 16]
100: Plant response rating, Barnyardgrass [1, 12] | Plant response rating, Barnyardgrass [1, 13] | Plant response rating, Barnyardgrass [1, 15] | Plant response rating, Crabgrass, Large [3, 15] | Plant response rating, Pigweed [5, 12] | Plant response rating, Pigweed [5, 13] | Plant response rating, Pigweed [5, 15] | Plant response rating, Velvetleaf [6, 12] | Plant response rating, Velvetleaf [6, 13] | Plant response rating, Velvetleaf [6, 19]
80: Plant response rating, Crabgrass, Large [3, 12]
0: Plant response rating, Corn (corn (Zea mays); [14]) | Plant response rating, Wheat [7, 14] | Canarygrass plant response rating (0 to 100 scale) ([8]; 13 to 15 days) | Plant response rating, Canarygrass [8, 16] | Barley plant response rating (0 to 100 scale) ([11]; 13 to 15 days) | Plant response rating, Barley [11, 16]
15: Plant response rating, Barley [11, 17]
